According to ChEMBL document CHEMBL4507315 (2021):

Legend:
[1] = tested on: Tyrosine-protein kinase ABL1 (Homo sapiens), P00519 [E255K]; details: Compound concentration 100.0 nM
[2] = target: Tyrosine-protein kinase ABL2 (Homo sapiens) (UniProt P42684); details: Compound concentration 100.0 nM
[3] = target: RAC-gamma serine/threonine-protein kinase (Homo sapiens) (UniProt Q9Y243); details: Compound concentration 100.0 nM
[4] = target: 5'-AMP-activated protein kinase catalytic subunit alpha-1 (Homo sapiens) (UniProt Q13131); details: Compound concentration 100.0 nM
[5] = target: 5'-AMP-activated protein kinase catalytic subunit alpha-2 (Homo sapiens) (UniProt P54646); details: Compound concentration 100.0 nM
5'-AMP-activated protein kinase catalytic subunit alpha-2 (Homo sapiens), sequence (P54646 whole entry, looked up): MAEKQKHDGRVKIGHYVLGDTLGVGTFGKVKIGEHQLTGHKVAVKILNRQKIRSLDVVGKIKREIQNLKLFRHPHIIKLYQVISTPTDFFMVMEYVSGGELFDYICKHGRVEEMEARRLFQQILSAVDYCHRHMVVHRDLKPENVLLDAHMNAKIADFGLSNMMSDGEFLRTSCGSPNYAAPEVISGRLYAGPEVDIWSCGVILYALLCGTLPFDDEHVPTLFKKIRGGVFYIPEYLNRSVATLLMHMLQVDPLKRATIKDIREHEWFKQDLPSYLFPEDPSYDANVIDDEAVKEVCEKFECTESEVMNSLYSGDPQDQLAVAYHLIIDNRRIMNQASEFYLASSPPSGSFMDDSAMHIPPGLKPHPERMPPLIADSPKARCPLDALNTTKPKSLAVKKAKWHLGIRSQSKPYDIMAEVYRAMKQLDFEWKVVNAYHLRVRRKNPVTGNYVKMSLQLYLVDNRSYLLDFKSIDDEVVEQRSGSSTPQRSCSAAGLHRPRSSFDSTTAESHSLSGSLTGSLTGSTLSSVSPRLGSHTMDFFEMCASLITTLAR

[6] = target: Mitogen-activated protein kinase kinase kinase 5 (Homo sapiens) (UniProt Q99683); details: Compound concentration 100.0 nM
[7] = target: Calcium/calmodulin-dependent protein kinase kinase 2 (Homo sapiens) (UniProt Q96RR4); details: Compound concentration 100.0 nM
[8] = target: Cyclin-dependent kinase 13 (Homo sapiens) (UniProt Q14004); details: Compound concentration 100.0 nM
[9] = target: Dual specificity protein kinase CLK1 (Homo sapiens) (UniProt P49759); details: Compound concentration 100.0 nM
Dual specificity protein kinase CLK1 (Homo sapiens), sequence (P49759 whole entry, looked up): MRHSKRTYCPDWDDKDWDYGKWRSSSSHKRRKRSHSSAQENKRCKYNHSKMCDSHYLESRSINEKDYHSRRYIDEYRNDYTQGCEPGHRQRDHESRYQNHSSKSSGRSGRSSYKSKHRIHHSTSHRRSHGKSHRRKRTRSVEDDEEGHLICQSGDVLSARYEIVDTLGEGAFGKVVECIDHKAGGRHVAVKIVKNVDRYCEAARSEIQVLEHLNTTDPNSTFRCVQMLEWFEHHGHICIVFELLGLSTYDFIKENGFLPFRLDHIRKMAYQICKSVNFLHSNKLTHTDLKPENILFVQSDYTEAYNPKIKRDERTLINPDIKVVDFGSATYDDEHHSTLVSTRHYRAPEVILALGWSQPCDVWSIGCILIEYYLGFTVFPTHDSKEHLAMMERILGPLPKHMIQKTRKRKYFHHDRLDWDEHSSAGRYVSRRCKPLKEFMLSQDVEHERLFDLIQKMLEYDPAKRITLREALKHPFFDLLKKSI

[10] = target: Dual specificity protein kinase CLK2 (Homo sapiens) (UniProt P49760); details: Compound concentration 100.0 nM
[11] = target: Casein kinase II subunit alpha (Homo sapiens) (UniProt P68400); details: Compound concentration 100.0 nM
Casein kinase II subunit alpha (Homo sapiens), sequence (P68400 whole entry, looked up): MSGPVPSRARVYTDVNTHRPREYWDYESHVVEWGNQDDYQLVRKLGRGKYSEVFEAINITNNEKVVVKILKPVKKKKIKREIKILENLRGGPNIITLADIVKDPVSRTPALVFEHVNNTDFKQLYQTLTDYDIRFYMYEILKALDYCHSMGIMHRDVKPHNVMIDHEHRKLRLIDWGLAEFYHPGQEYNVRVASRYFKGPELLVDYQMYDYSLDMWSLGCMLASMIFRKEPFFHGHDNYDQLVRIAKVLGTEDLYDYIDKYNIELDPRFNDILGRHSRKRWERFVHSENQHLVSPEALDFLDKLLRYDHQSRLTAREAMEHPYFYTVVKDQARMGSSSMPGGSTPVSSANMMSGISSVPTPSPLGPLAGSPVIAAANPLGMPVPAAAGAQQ

[12] = target: Dual specificity tyrosine-phosphorylation-regulated kinase 1B (Homo sapiens) (UniProt Q9Y463); details: Compound concentration 100.0 nM
Dual specificity tyrosine-phosphorylation-regulated kinase 1B (Homo sapiens), sequence (Q9Y463 whole entry, looked up): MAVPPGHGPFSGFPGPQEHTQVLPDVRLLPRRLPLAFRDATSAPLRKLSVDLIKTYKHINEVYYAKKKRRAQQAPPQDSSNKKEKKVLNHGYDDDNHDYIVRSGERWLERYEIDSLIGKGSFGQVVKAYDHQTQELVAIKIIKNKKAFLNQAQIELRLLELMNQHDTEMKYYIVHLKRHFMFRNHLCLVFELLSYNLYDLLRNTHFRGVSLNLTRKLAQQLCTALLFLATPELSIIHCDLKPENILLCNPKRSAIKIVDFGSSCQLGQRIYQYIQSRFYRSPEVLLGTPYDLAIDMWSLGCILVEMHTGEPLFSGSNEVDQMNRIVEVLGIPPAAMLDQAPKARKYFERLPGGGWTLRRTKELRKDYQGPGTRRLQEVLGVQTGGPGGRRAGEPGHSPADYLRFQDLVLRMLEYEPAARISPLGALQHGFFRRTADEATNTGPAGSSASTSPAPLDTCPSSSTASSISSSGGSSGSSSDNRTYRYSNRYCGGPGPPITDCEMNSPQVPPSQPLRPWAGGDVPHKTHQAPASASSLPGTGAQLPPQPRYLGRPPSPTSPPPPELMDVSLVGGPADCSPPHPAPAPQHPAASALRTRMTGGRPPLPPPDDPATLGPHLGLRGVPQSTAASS

[13] = target: Ephrin type-A receptor 3 (Homo sapiens) (UniProt P29320); details: Compound concentration 100.0 nM
[14] = target: Ephrin type-A receptor 4 (Homo sapiens) (UniProt P54764); details: Compound concentration 100.0 nM
[15] = target: Ephrin type-B receptor 4 (Homo sapiens) (UniProt P54760); details: Compound concentration 100.0 nM
[16] = tested on: Receptor-type tyrosine-protein kinase FLT3 (Homo sapiens), P36888 [D835Y]; details: Compound concentration 100.0 nM
[17] = target: Homeodomain-interacting protein kinase 1 (Homo sapiens) (UniProt Q86Z02); details: Compound concentration 100.0 nM
[18] = target: Hormonally up-regulated neu tumor-associated kinase (Homo sapiens) (UniProt P57058); details: Compound concentration 100.0 nM
[19] = target: Serine/threonine-protein kinase ICK (Homo sapiens) (UniProt Q9UPZ9); details: Compound concentration 100.0 nM
[20] = target: Tyrosine-protein kinase ITK/TSK (Homo sapiens) (UniProt Q08881); details: Compound concentration 100.0 nM
Tyrosine-protein kinase ITK/TSK (Homo sapiens), sequence (Q08881 whole entry): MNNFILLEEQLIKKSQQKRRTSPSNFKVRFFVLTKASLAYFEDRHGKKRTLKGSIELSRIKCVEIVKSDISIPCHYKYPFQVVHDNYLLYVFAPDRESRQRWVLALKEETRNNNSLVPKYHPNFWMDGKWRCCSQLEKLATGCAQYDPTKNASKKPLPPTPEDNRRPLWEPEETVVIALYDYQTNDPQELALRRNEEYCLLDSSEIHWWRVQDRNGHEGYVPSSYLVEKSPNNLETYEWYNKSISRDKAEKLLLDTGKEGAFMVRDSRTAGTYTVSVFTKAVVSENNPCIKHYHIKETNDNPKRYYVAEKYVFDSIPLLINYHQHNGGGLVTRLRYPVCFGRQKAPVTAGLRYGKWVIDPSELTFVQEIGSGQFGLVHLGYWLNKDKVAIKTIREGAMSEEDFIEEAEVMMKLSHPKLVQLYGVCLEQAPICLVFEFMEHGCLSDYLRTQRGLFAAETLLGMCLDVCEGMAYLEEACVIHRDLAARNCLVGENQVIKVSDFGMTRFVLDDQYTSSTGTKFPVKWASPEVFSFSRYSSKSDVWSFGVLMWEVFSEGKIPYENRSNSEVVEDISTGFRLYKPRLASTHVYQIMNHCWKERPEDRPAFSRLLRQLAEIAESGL

[21] = target: Tyrosine-protein kinase JAK1 (Homo sapiens) (UniProt P23458); details: Compound concentration 100.0 nM
[22] = target: LIM domain kinase 1 (Homo sapiens) (UniProt P53667); details: Compound concentration 100.0 nM
[23] = target: Serine/threonine-protein kinase MRCK alpha (Homo sapiens) (UniProt Q5VT25); details: Compound concentration 100.0 nM
[24] = target: Myosin light chain kinase family member 4 (Homo sapiens) (UniProt Q86YV6); details: Compound concentration 100.0 nM
[25] = target: Serine/threonine-protein kinase Nek5 (Homo sapiens) (UniProt Q6P3R8); details: Compound concentration 100.0 nM
Serine/threonine-protein kinase Nek5 (Homo sapiens), sequence (Q6P3R8 whole entry): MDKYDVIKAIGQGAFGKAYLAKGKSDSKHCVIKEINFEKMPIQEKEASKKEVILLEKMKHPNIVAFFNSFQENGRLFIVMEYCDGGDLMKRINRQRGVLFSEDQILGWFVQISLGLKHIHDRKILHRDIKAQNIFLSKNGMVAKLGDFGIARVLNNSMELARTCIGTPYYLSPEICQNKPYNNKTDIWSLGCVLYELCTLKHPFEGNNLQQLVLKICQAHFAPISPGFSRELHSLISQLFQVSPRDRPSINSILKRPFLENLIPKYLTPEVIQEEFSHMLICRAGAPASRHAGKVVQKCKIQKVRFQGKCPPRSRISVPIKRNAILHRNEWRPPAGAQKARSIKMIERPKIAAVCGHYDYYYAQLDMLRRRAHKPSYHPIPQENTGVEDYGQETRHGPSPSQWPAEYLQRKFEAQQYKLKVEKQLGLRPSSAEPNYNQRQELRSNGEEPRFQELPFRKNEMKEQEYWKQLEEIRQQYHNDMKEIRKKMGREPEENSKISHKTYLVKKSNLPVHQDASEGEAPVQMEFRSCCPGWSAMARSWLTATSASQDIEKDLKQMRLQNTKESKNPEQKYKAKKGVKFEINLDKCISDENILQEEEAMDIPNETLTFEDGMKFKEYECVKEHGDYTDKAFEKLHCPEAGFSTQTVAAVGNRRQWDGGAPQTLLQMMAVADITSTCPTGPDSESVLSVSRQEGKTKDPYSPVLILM

[26] = target: Serine/threonine-protein kinase OSR1 (Homo sapiens) (UniProt O95747); details: Compound concentration 100.0 nM
[27] = target: Cyclin-dependent kinase 2 homolog (Plasmodium falciparum (isolate 3D7)) (UniProt P61075); details: Compound concentration 100.0 nM
[28] = target: Cyclin-dependent kinase 15 (Homo sapiens) (UniProt Q96Q40); details: Compound concentration 100.0 nM
[29] = target: Phosphatidylinositol 4,5-bisphosphate 3-kinase catalytic subunit alpha isoform (Homo sapiens) (UniProt P42336); details: Compound concentration 100.0 nM
[30] = target: Serine/threonine-protein kinase SIK3 (Homo sapiens) (UniProt Q9Y2K2); details: Compound concentration 100.0 nM
[31] = target: Rho-associated protein kinase 1 (Homo sapiens) (UniProt Q13464); details: Compound concentration 100.0 nM
[32] = target: Ribosomal protein S6 kinase alpha-5 (Homo sapiens) (UniProt O75582); details: Compound concentration 100.0 nM
[33] = target: Ribosomal protein S6 kinase alpha-6 (Homo sapiens) (UniProt Q9UK32); details: Compound concentration 100.0 nM
[34] = target: Serine/threonine-protein kinase 33 (Homo sapiens) (UniProt Q9BYT3); details: Compound concentration 100.0 nM
[35] = target: Serine/threonine-protein kinase TBK1 (Homo sapiens) (UniProt Q9UHD2); details: Compound concentration 100.0 nM
[36] = target: Tyrosine-protein kinase Tec (Homo sapiens) (UniProt P42680); details: Compound concentration 100.0 nM
Tyrosine-protein kinase Tec (Homo sapiens), sequence (P42680 whole entry): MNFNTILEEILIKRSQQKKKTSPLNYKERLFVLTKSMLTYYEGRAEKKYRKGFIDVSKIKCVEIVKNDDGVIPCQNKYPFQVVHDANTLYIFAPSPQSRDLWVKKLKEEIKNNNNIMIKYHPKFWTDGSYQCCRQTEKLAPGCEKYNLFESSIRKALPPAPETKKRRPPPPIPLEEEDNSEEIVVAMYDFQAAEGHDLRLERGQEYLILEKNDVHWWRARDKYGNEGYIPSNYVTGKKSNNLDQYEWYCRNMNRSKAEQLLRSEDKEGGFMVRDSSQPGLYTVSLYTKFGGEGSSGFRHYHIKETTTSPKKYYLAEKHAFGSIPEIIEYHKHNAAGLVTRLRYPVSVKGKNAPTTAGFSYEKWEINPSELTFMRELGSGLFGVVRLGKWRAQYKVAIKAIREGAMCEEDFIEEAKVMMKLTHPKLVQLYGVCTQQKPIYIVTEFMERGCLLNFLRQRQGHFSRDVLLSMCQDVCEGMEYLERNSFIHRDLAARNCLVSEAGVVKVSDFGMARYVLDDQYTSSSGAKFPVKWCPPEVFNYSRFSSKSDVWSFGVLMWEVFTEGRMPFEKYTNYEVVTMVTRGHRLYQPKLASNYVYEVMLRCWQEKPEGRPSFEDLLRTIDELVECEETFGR

[37] = target: TGF-beta receptor type-2 (Homo sapiens) (UniProt P37173); details: Compound concentration 100.0 nM
[38] = target: Angiopoietin-1 receptor (Homo sapiens) (UniProt Q02763); details: Compound concentration 100.0 nM
[39] = target: BDNF/NT-3 growth factors receptor (Homo sapiens) (UniProt Q16620); details: Compound concentration 100.0 nM
[40] = target: Serine/threonine-protein kinase 32B (Homo sapiens) (UniProt Q9NY57); details: Compound concentration 100.0 nM
[41] = target: D(1A) dopamine receptor (Homo sapiens) (UniProt P21728); details: Compound concentration 10.0 uM
[42] = target: D(2) dopamine receptor (Homo sapiens) (UniProt P14416); details: Compound concentration 10.0 uM
D(2) dopamine receptor (Homo sapiens), sequence (P14416 whole entry): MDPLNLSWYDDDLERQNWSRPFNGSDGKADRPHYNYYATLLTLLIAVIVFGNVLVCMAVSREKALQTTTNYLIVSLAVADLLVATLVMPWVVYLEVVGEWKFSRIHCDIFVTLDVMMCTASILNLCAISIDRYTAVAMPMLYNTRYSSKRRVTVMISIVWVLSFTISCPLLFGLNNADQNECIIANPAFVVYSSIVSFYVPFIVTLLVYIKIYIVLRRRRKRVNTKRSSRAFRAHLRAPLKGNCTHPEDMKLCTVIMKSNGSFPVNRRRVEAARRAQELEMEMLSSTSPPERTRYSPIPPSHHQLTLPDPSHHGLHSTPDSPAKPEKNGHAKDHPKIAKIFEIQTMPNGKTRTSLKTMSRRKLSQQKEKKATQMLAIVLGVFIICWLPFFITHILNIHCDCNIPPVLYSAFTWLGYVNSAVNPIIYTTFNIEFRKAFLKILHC

[43] = target: Kappa-type opioid receptor (Homo sapiens, UniProt P41145); details: Compound concentration 10.0 uM
[44] = target: Histamine H3 receptor (Homo sapiens) (UniProt Q9Y5N1); details: Compound concentration 10.0 uM
Histamine H3 receptor (Homo sapiens), sequence (Q9Y5N1 whole entry): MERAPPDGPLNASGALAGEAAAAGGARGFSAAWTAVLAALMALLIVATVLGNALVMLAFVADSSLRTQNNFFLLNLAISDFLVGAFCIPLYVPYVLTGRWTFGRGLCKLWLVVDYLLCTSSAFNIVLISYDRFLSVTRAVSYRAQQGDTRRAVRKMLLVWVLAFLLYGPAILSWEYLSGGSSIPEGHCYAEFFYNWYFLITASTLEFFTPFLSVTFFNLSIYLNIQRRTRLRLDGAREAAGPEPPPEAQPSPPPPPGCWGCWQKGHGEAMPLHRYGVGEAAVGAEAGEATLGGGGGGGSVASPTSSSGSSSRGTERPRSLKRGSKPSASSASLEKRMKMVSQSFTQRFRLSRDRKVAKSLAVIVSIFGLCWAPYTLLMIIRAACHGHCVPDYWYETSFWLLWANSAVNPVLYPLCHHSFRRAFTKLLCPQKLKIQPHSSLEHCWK

[45] = target: Alpha-1A adrenergic receptor (Homo sapiens) (UniProt P35348); details: Compound concentration 10.0 uM

## Nc1c(C(=O)NCc2ccc(C(=O)NCCCC3CCCCC3)cc2)cnn1-c1ccccc1 [SR-318]
[1]
  residual activity: 100%
[2]
  residual activity: 100%
[3]
  residual activity: 78%
[4]
  residual activity: 100%
[5]
  residual activity: 100%
[6]
  residual activity: 81%
[7]
  residual activity: 100%
[8]
  residual activity: 79%
[9]
  residual activity: 100%
[10]
  residual activity: 100%
[11]
  residual activity: 70%
[12]
  residual activity: 100%
[13]
  residual activity: 100%
[14]
  residual activity: 100%
[15]
  residual activity: 100%
[16]
  residual activity: 100%
[17]
  residual activity: 100%
[18]
  residual activity: 100%
[19]
  residual activity: 100%
[20]
  residual activity: 93%
[21]
  residual activity: 100%
[22]
  residual activity: 100%
[23]
  residual activity: 100%
[24]
  residual activity: 100%
[25]
  residual activity: 99%
[26]
  residual activity: 100%
[27]
  residual activity: 100%
[28]
  residual activity: 95%
[29]
  residual activity: 100%
[30]
  residual activity: 94%
[31]
  residual activity: 100%
[32]
  residual activity: 94%
[33]
  residual activity: 100%
[34]
  residual activity: 96%
[35]
  residual activity: 96%
[36]
  residual activity: 100%
[37]
  residual activity: 99%
[38]
  residual activity: 100%
[39]
  residual activity: 85%
[40]
  residual activity: 100%
[41]
  inhibition: -5.64%
[42]
  inhibition: 15%
[43]
  inhibition: 38.6%
[44]
  inhibition: -2.98%
[45]
  inhibition: 36.9%

## O=C(NCCCC1CCCCC1)c1ccc(CNC(=O)c2cnn(-c3ccccc3)c2C(F)(F)F)cc1 [SR-321]
[1]
  residual activity: 92%
[2]
  residual activity: 87%
[3]
  residual activity: 97%
[4]
  residual activity: 100%
[5]
  residual activity: 100%
[6]
  residual activity: 91%
[7]
  residual activity: 100%
[8]
  residual activity: 100%
[9]
  residual activity: 96%
[10]
  residual activity: 100%
[11]
  residual activity: 94%
[12]
  residual activity: 100%
[13]
  residual activity: 91%
[14]
  residual activity: 70%
[15]
  residual activity: 95%
[16]
  residual activity: 100%
[17]
  residual activity: 99%
[18]
  residual activity: 100%
[19]
  residual activity: 79%
[20]
  residual activity: 100%
[21]
  residual activity: 89%
[22]
  residual activity: 100%
[23]
  residual activity: 100%
[24]
  residual activity: 100%
[25]
  residual activity: 100%
[26]
  residual activity: 91%
[27]
  residual activity: 100%
[28]
  residual activity: 77%
[29]
  residual activity: 100%
[30]
  residual activity: 76%
[31]
  residual activity: 100%
[32]
  residual activity: 100%
[33]
  residual activity: 100%
[34]
  residual activity: 87%
[35]
  residual activity: 100%
[36]
  residual activity: 94%
[37]
  residual activity: 100%
[38]
  residual activity: 100%
[39]
  residual activity: 100%
[40]
  residual activity: 100%
[41]
  inhibition: 5.56%
[42]
  inhibition: 15.8%
[43]
  inhibition: 80.2%
[44]
  inhibition: 9.12%
[45]
  inhibition: 17.9%
